Measured values reported in US7741479B2, “Urea inhibitors of MAP kinases” (Locus Pharmaceuticals, Inc., priority 2004, dated 2010).
Read-outs that look alike come from different tables or passages of the source.

Molecular target: T1, p38 (Homo sapiens, UniProt Q16539)
T1 construct: made in house
Assay: Protein Kinase Assay (33P incorporation from γ-[33P]ATP into GST-ATF-2 substrate)
Format: biochemical
Conditions: for inhibition at 10 µM: compound at 10 μM; for inhibition at 0.5 µM: same procedure at 0.5 μM
Description: Human non-activated p38 kinase (MW=43 kDa) was purified according to the protocol described herein. Chemicals were purchased from Calbiochem. Fluorescence characterizations were conducted using a Cary Eclipse (Varian Analytical Instruments, Walnut Creek, Calif.). Research-grade CM5 sensor chips and coupling reagents (N-ethyl-N′-dimethylaminopropylcarbodiimide (EDC) N-hydroxysuccinimide (NHS), and 1 M ethanolamine HCl, pH 8.5) were purchased from Biacore AB (Uppsala, Sweden). The biosensor analyses were conducted using a Biacore 3000 SPR instrument. The kinetic analyses were carried on a Molecular Devices spectrophotometer (Molecular Devices Corporation, CA, USA).
Protein Kinase Assay. The protein kinase activity of p38 was determined by measuring the incorporation of ^33P from γ-[^33P]ATP into the GST-ATF-2 substrate, amino acids 19-96 (Upstate, NY USA). […] Compounds were preincubated with 10 nM p38 for 20 min at 30° C.; the reactions were initiated by the addition of GST-ATF2 and ATP and incubated for 70 min at 30° C. before being stopped by the addition of 10 μL of 600 mM phosphoric acid. The phosphorylated substrate was captured on phosphocellulose 96-well plate (Millipore MAPHNOB 10), washed with 100 mM phosphoric acid, and counted in a BeckmenCoulter LS6500 liquid scintillation counter.

[1] = compound at 3 μM, read-out: Protein Kinase (% Inhibition at 3 μM)

T1 sequence (Q16539 whole entry): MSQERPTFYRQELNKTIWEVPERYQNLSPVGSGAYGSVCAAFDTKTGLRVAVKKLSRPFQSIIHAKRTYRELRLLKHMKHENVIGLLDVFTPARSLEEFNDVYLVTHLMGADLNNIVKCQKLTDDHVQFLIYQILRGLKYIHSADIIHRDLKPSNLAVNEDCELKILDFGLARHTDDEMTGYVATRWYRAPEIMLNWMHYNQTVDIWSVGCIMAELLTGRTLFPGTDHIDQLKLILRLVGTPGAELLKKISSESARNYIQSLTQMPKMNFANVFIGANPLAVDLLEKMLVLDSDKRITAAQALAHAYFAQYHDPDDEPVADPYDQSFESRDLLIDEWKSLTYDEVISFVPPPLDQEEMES

inhibition at 10 µM [%]	inhibition at 3 µM [1] [%]	SMILES	other results
76 to 100	–	CC(C)(C)c1cc(NC(=O)Nc2cccc3ccccc23)n(C(=O)N2CCS(=O)(=O)CC2)n1 [Example 21, 1-[5-tert-butyl-2-(1,1-dioxo-1λ^6-thiomorpholine-4-carbonyl)-2H-pyrazol-3-yl]-3-naphthalen-1-ylurea]	–
–	76 to 100	CC(C)(C)c1cc(C(=O)N2CCNC(=O)CC2)c(NC(=O)Nc2ccc(C#N)cc2Cl)s1 [Example 90, 1-[5-tert-Butyl-3-(5-oxo-[1,4]diazepane-1-carbonyl)thiophen-2-yl]-3-(2-chloro-4-cyanophenyl)urea]	–
–	76 to 100	CC(C)(C)c1cc(C(=O)N2CCNC(=O)CC2)c(NC(=O)Nc2ccc(Cl)cc2)s1 [Example 46, 1-[5-tert-butyl-3-(5-oxo-[1,4]diazepane-1-carbonyl)thiophen-2-yl]-3-(4-chloro-phenyl)urea]	–
–	26 to 50	CC(C)(C)c1cc(C(=O)N2CCS(=O)(=O)CC2)c(NC(=O)NC2(c3ccccc3)CC2)s1 [Example 77, 1-[5-tert-butyl-3-(1,1-dioxo-1λ^6-thiomorpholine-4-carbonyl)thiophen-2-yl]-3-(1-phenylcyclopropyl)urea]	–
76 to 100	–	CC(C)(C)c1cc(NC(=O)Nc2ccc(Cl)cc2)c(C(=O)N2CCS(=O)(=O)CC2)s1 [Example 10, 1-[5-tert-butyl-2-(1,1-dioxo-1λ^6-thiomorpholine-4-carbonyl)thiophen-3-yl]-3-(4-chlorophenyl)urea]	–
76 to 100	–	CC(C)(C)c1cc(CN2CCS(=O)(=O)CC2)c(NC(=O)Nc2ccc(Cl)cc2)s1 [Example 3, 1-[5-tert-butyl-3-(1,1-dioxo-1λ^6-thiomorpholin-4-ylmethyl)thiophen-2-yl]-3-(4-chlorophenyl)urea]	–
–	–	CC(C)(C)c1cc(C(=O)NCc2cccnc2)c(NC(=O)Nc2ccc3ccccc3c2)s1 [Example 132, 5-tert-Butyl-2-(3-naphthalen-2-yl-ureido)thiophene-3-carboxylic acid (pyridin-3-ylmethyl)amide]	inhibition at 0.5 µM: 76 to 100%
26 to 50	–	CC(C)(C)c1cc(NC(=O)Nc2ccc3ccccc3c2)n(C(=O)N2CCS(=O)(=O)CC2)n1 [Example 23, 1-[5-tert-butyl-2-(1,1-dioxo-1λ^6-thiomorpholine-4-carbonyl)-2H-pyrazol-3-yl]-3-naphthalen-2-ylurea]	–
51 to 75	–	CC(C)(C)c1cc(NC(=O)Nc2cccc3ccccc23)n(CC(=O)N2CCS(=O)(=O)CC2)n1 [Example 9, 1-{5-tert-butyl-2-[2-(1,1-dioxo-1λ^6-thiomorpholin-4-yl)-2-oxoethyl]-2H-pyrazol-3-yl}-3-naphthalen-1-ylurea]	–
0 to 25	–	CC(C)(C)c1cc(NC(=O)Nc2cccc3ccccc23)c(CN2CCS(=O)(=O)CC2)s1 [Example 14, 1-[5-tert-butyl-2-(1,1-dioxo-1λ^6-thiomorpholin-4-ylmethyl)thiophen-3-yl]-3-naphthalen-1-ylurea]	–
76 to 100	–	CC(C)(C)c1cc(NC(=O)Nc2cccc3ccccc23)c(C(=O)N2CCS(=O)(=O)CC2)s1 [Example 11, 1-[5-tert-butyl-2-(1,1-dioxo-1λ^6-thiomorpholine-4-carbonyl)thiophen-3-yl]-3-naphthalen-1-ylurea]	–
–	–	CC(C)(C)c1cc(C(=O)N2CCS(=O)(=O)CC2)c(NC(=O)Nc2cccc3nc[nH]c23)s1 [Example 42, 1-(3H-Benzimidazol-4-yl)-3-[5-tert-butyl-3-(1,1-dioxo-1λ^6-thiomorpholine-4-carbonyl)thiophen-2-yl]urea]	inhibition at 3 µM (compound at 3 μM (noted beside the value in Table 1), read-out: Protein Kinase (% Inhibition)): 76 to 100%
0 to 25	–	CC(C)(C)c1cc(C(=O)N2CCS(=O)(=O)CC2)c(NC(=O)Nc2ccc3c(c2)NC(=O)CC3)s1 [Example 33, 1-[5-tert-butyl-3-(1,1-dioxo-1λ^6-thiomorpholine-4-carbonyl)thiophen-2-yl]-3-(2-oxo-1,2,3,4-tetrahydroquinolin-7-yl)urea]	–
–	51 to 75	CC(C)(C)c1cc(C(=O)N2CCS(=O)(=O)CC2)c(NC(=O)Nc2c[nH]c3ccccc23)s1 [Example 49, 1-[5-tert-butyl-3-(1,1-dioxo-1λ^6-thiomorpholine-4-carbonyl)thiophen-2-yl]-3-(1H-indol-3-yl)urea]	–
76 to 100	–	CC(C)(C)c1cc(C(=O)N2CCS(=O)(=O)CC2)c(NC(=O)Nc2ccc(O)c3ccccc23)s1 [Example 34, 1-[5-tert-butyl-3-(1,1-dioxo-1λ^6-thiomorpholine-4-carbonyl)thiophen-2-yl]-3-(4-hydroxynaphthalen-1-yl)urea]	–
–	–	CC(C)(C)c1cc(C(=O)NCc2cccnc2)c(NC(=O)Nc2cccc(Cl)c2Cl)s1 [Example 130, 5-tert-butyl-2-[3-(2,3-dichlorophenyl)ureido]thiophene-3-carboxylic acid (pyridin-3-ylmethyl)amide]	inhibition at 0.5 µM: 76 to 100%
–	76 to 100	CC(C)(C)c1cc(C(=O)NCCS(C)(=O)=O)c(NC(=O)Nc2cccc3ccccc23)s1 [Example 45, 1-(3-(2-(Methylsulfonyl)ethylcarbamoyl)-5-tert-butylthiophen-2-yl)-3-(naphthalen-1-yl)urea]	–
–	76 to 100	CC(C)(C)c1cc(C(=O)N2CCNC(=O)CC2)c(NC(=O)Nc2cccc(Cl)c2Cl)s1 [Example 53, 1-[5-tert-butyl-3-(5-oxo-[1,4]diazepane-1-carbonyl)thiophen-2-yl]-3-(2,3-dichlorophenyl)urea]	–
26 to 50	–	CC(C)(C)c1cc(C(=O)N2CCOCC2)c(NC(=O)Nc2cccc3ccccc23)s1 [Example 16, 1-[5-tert-butyl-3-(morpholine-4-carbonyl)thiophen-2-yl]-3-naphthalen-1-yl-urea]	–
0 to 25	–	CC(C)(C)c1cc(CN2CCSCC2)c(NC(=O)Nc2cccc3ccccc23)s1 [Example 20, 1-(5-tert-butyl-3-thiomorpholin-4-ylmethylthiophen-2-yl)-3-naphthalen-1-yl-urea]	–
76 to 100	–	CC(C)(C)c1cc(C(=O)N2CCNC(=O)CC2)c(NC(=O)Nc2ccc3ccccc3c2)s1 [Example 44, 1-[5-tert-butyl-3-(5-oxo[1,4]diazepane-1-carbonyl)thiophen-2-yl]-3-naphthalen-2-ylurea]	–
–	76 to 100	COc1ccc(NC(=O)Nc2sc(C(C)(C)C)cc2C(=O)N2CCNS(=O)(=O)CC2)cc1Cl [Example 95, 1-[5-tert-Butyl-3-(1,1-dioxo-1λ^6-[1,2,5]thiadiazepane-5-carbonyl)thiophen-2-yl]-3-(3-chloro-4-methoxyphenyl)urea]	–
26 to 50	–	CC(C)(C)c1cc(C(=O)N2CC[S+]([O-])CC2)c(NC(=O)Nc2cccc3ccccc23)s1 [Example 22, 1-[5-tert-butyl-3-(1-oxo-1λ^4-thiomorpholine-4-carbonyl)thiophen-2-yl]-3-naphthalen-1-ylurea]	–
76 to 100	–	CC(C)(C)c1cc(C(=O)N2CCS(=O)(=O)CC2)c(NC(=O)Nc2ccc(Cl)cc2)s1 [Example 1, 1-[5-tert-butyl-3-(1,1-dioxo-1λ^6-thiomorpholine-4-carbonyl)thiophen-2-yl]-3-(4-chlorophenyl)urea]	–
–	76 to 100	CC(C)(C)c1cc(C(=O)N[C@H]2CC(=O)NC2=O)c(NC(=O)Nc2cccc3ccccc23)s1 [Example 86]	–

SMILES	inhibition at 10 µM [%]	inhibition at 3 µM [1] [%]	other results
CC(C)(C)c1cc(C(=O)N2CCS(=O)(=O)CC2)c(NC(=O)Nc2ccc(C#N)c(C(F)(F)F)c2)s1 [Example 65, 1-[5-tert-butyl-3-(1,1-dioxo-1λ^6-thiomorpholine-4-carbonyl)thiophen-2-yl]-3-(4-cyano-3-trifluoromethylphenyl)urea]	–	26 to 50	–
